{"source": "paper PMC8854719", "about": "“Phase 1A/1B dose-escalation and -expansion study to evaluate the safety, pharmacokinetics, food effects and antitumor activity of pamiparib in advanced solid tumours” (British Journal of Cancer, 2021)", "experiment": "Safety and tolerability: adverse events, dose-limiting toxicities, MTD, RP2D (Phase 1A/1B)", "format": "in vivo", "protocol": "This was an open-label, Phase 1, dose-escalation/dose-expansion study, conducted across six study centres in Australia. The dose-escalation phase evaluated twice-daily (BID) and once-daily (QD) dosing, and the dose-expansion phase evaluated the BID RP2D from the dose-escalation phase and food effects (Fig. 1). The food-effects cohort comprised two sequences: fast followed by fed (sequence 1) and fed followed by fast (sequence 2). […] The decision to proceed to the next dose cohort was determined by the Safety Monitoring Committee and followed a modified 3 + 3 escalation scheme. […] When ≥2 DLTs occurred in the first 23 days of a dose level, the next lower dose level was declared the MTD. Safety was monitored and DLTs were assessed in all dose cohorts. […] The food-effects cohort investigated the effects of food on the PK of pamiparib in patients with advanced solid tumours.\nThe QD dosing regimen was added as an amendment to the protocol with the purpose of exploring the feasibility of a more convenient regimen.\nSafety and tolerability were assessed throughout the study by monitoring adverse events (AEs), serious AEs, clinical laboratory measurements and physical examinations. Adverse events were categorised according to their severity (National Cancer Institute Common Terminology Criteria for Adverse Events v4.03) and relationship to the study treatment."}
{"smiles": "C[C@]12CCCN1CC1=NNC(=O)c3cc(F)cc4[nH]c2c1c34", "note": "[pamiparib]", "values": [{"measurement": "Abdominal pain, AE of any grade", "setting": "2.5 mg BID (n = 4)", "result": "1 (25.0) n (%)"}, {"measurement": "Anaemia, AE of any grade", "setting": "2.5 mg BID (n = 4)", "result": "1 (25.0) n (%)"}, {"measurement": "Ascites, AE of any grade", "setting": "2.5 mg BID (n = 4)", "result": "1 (25.0) n (%)"}, {"measurement": "Back pain, AE of any grade", "setting": "2.5 mg BID (n = 4)", "result": "0 (0.0) n (%)"}, {"measurement": "Constipation, AE of any grade", "setting": "2.5 mg BID (n = 4)", "result": "1 (25.0) n (%)"}, {"measurement": "Cough, AE of any grade", "setting": "2.5 mg BID (n = 4)", "result": "0 (0.0) n (%)"}, {"measurement": "Decreased appetite, AE of any grade", "setting": "2.5 mg BID (n = 4)", "result": "0 (0.0) n (%)"}, {"measurement": "Diarrhoea, AE of any grade", "setting": "2.5 mg BID (n = 4)", "result": "0 (0.0) n (%)"}, {"measurement": "Dose-limiting toxicity", "setting": "2.5 mg BID (n = 4)", "result": "0 (0.0) n (%)"}, {"measurement": "Dyspnoea, AE of any grade", "setting": "2.5 mg BID (n = 4)", "result": "0 (0.0) n (%)"}, {"measurement": "Fatigue, AE of any grade", "setting": "2.5 mg BID (n = 4)", "result": "1 (25.0) n (%)"}, {"measurement": "Headache, AE of any grade", "setting": "2.5 mg BID (n = 4)", "result": "0 (0.0) n (%)"}, {"measurement": "Hypoalbuminemia, AE of any grade", "setting": "2.5 mg BID (n = 4)", "result": "1 (25.0) n (%)"}, {"measurement": "Hypomagnesemia, AE of any grade", "setting": "2.5 mg BID (n = 4)", "result": "0 (0.0) n (%)"}, {"measurement": "Hypophosphatemia, AE of any grade", "setting": "2.5 mg BID (n = 4)", "result": "0 (0.0) n (%)"}, {"measurement": "Increased AST, AE of any grade", "setting": "2.5 mg BID (n = 4)", "result": "0 (0.0) n (%)"}, {"measurement": "Muscle spasms, AE of any grade", "setting": "2.5 mg BID (n = 4)", "result": "1 (25.0) n (%)"}, {"measurement": "Nausea, AE of any grade", "setting": "2.5 mg BID (n = 4)", "result": "3 (75.0) n (%)"}, {"measurement": "Neutropenia, AE of any grade", "setting": "2.5 mg BID (n = 4)", "result": "0 (0.0) n (%)"}, {"measurement": "Non-cardiac chest pain, AE of any grade", "setting": "2.5 mg BID (n = 4)", "result": "0 (0.0) n (%)"}, {"measurement": "Pain in extremity, AE of any grade", "setting": "2.5 mg BID (n = 4)", "result": "0 (0.0) n (%)"}, {"measurement": "Peripheral sensory neuropathy, AE of any grade", "setting": "2.5 mg BID (n = 4)", "result": "0 (0.0) n (%)"}, {"measurement": "Pleural effusion, AE of any grade", "setting": "2.5 mg BID (n = 4)", "result": "0 (0.0) n (%)"}, {"measurement": "Pyrexia, AE of any grade", "setting": "2.5 mg BID (n = 4)", "result": "1 (25.0) n (%)"}, {"measurement": "Treatment-emergent AE", "setting": "2.5 mg BID (n = 4)", "result": "4 (100.0) n (%)"}, {"measurement": "Treatment-emergent AE: Grade 3 or higher", "setting": "2.5 mg BID (n = 4)", "result": "3 (75.0) n (%)"}, {"measurement": "Treatment-emergent AE: Leading to death", "setting": "2.5 mg BID (n = 4)", "result": "0 (0.0) n (%)"}, {"measurement": "Treatment-emergent AE: Leading to dose interruption", "setting": "2.5 mg BID (n = 4)", "result": "1 (25.0) n (%)"}, {"measurement": "Treatment-emergent AE: Leading to dose modification", "setting": "2.5 mg BID (n = 4)", "result": "1 (25.0) n (%)"}, {"measurement": "Treatment-emergent AE: Leading to dose reduction", "setting": "2.5 mg BID (n = 4)", "result": "0 (0.0) n (%)"}, {"measurement": "Treatment-emergent AE: Leading to treatment discontinuation", "setting": "2.5 mg BID (n = 4)", "result": "0 (0.0) n (%)"}, {"measurement": "Treatment-emergent AE: Serious", "setting": "2.5 mg BID (n = 4)", "result": "3 (75.0) n (%)"}, {"measurement": "Treatment-related AE", "setting": "2.5 mg BID (n = 4)", "result": "3 (75.0) n (%)"}, {"measurement": "Treatment-related AE: Grade 3 or higher", "setting": "2.5 mg BID (n = 4)", "result": "0 (0.0) n (%)"}, {"measurement": "Treatment-related AE: Leading to death", "setting": "2.5 mg BID (n = 4)", "result": "0 (0.0) n (%)"}, {"measurement": "Treatment-related AE: Leading to dose interruption", "setting": "2.5 mg BID (n = 4)", "result": "0 (0.0) n (%)"}, {"measurement": "Treatment-related AE: Leading to dose modification", "setting": "2.5 mg BID (n = 4)", "result": "0 (0.0) n (%)"}, {"measurement": "Treatment-related AE: Leading to dose reduction", "setting": "2.5 mg BID (n = 4)", "result": "0 (0.0) n (%)"}, {"measurement": "Treatment-related AE: Leading to treatment discontinuation", "setting": "2.5 mg BID (n = 4)", "result": "0 (0.0) n (%)"}, {"measurement": "Treatment-related AE: Serious", "setting": "2.5 mg BID (n = 4)", "result": "0 (0.0) n (%)"}, {"measurement": "Upper respiratory tract infection, AE of any grade", "setting": "2.5 mg BID (n = 4)", "result": "1 (25.0) n (%)"}, {"measurement": "Urinary tract infection, AE of any grade", "setting": "2.5 mg BID (n = 4)", "result": "0 (0.0) n (%)"}, {"measurement": "Vomiting, AE of any grade", "setting": "2.5 mg BID (n = 4)", "result": "1 (25.0) n (%)"}, {"measurement": "Abdominal pain, AE of any grade", "setting": "5.0 mg BID (n = 3)", "result": "0 (0.0) n (%)"}, {"measurement": "Anaemia, AE of any grade", "setting": "5.0 mg BID (n = 3)", "result": "0 (0.0) n (%)"}, {"measurement": "Ascites, AE of any grade", "setting": "5.0 mg BID (n = 3)", "result": "0 (0.0) n (%)"}, {"measurement": "Back pain, AE of any grade", "setting": "5.0 mg BID (n = 3)", "result": "0 (0.0) n (%)"}, {"measurement": "Constipation, AE of any grade", "setting": "5.0 mg BID (n = 3)", "result": "0 (0.0) n (%)"}, {"measurement": "Cough, AE of any grade", "setting": "5.0 mg BID (n = 3)", "result": "0 (0.0) n (%)"}, {"measurement": "Decreased appetite, AE of any grade", "setting": "5.0 mg BID (n = 3)", "result": "0 (0.0) n (%)"}, {"measurement": "Diarrhoea, AE of any grade", "setting": "5.0 mg BID (n = 3)", "result": "1 (33.3) n (%)"}, {"measurement": "Dose-limiting toxicity", "setting": "5.0 mg BID (n = 3)", "result": "0 (0.0) n (%)"}, {"measurement": "Dyspnoea, AE of any grade", "setting": "5.0 mg BID (n = 3)", "result": "0 (0.0) n (%)"}, {"measurement": "Fatigue, AE of any grade", "setting": "5.0 mg BID (n = 3)", "result": "1 (33.3) n (%)"}, {"measurement": "Headache, AE of any grade", "setting": "5.0 mg BID (n = 3)", "result": "1 (33.3) n (%)"}, {"measurement": "Hypoalbuminemia, AE of any grade", "setting": "5.0 mg BID (n = 3)", "result": "0 (0.0) n (%)"}, {"measurement": "Hypomagnesemia, AE of any grade", "setting": "5.0 mg BID (n = 3)", "result": "0 (0.0) n (%)"}, {"measurement": "Hypophosphatemia, AE of any grade", "setting": "5.0 mg BID (n = 3)", "result": "0 (0.0) n (%)"}, {"measurement": "Increased AST, AE of any grade", "setting": "5.0 mg BID (n = 3)", "result": "0 (0.0) n (%)"}, {"measurement": "Muscle spasms, AE of any grade", "setting": "5.0 mg BID (n = 3)", "result": "1 (33.3) n (%)"}, {"measurement": "Nausea, AE of any grade", "setting": "5.0 mg BID (n = 3)", "result": "0 (0.0) n (%)"}, {"measurement": "Neutropenia, AE of any grade", "setting": "5.0 mg BID (n = 3)", "result": "0 (0.0) n (%)"}, {"measurement": "Non-cardiac chest pain, AE of any grade", "setting": "5.0 mg BID (n = 3)", "result": "0 (0.0) n (%)"}, {"measurement": "Pain in extremity, AE of any grade", "setting": "5.0 mg BID (n = 3)", "result": "0 (0.0) n (%)"}, {"measurement": "Peripheral sensory neuropathy, AE of any grade", "setting": "5.0 mg BID (n = 3)", "result": "1 (33.3) n (%)"}]}
